Where a SMILES comes first, the peptide text is derived from it. [ ]: non-standard residue; d: D form. The star is where a group is joined. pS = N[C@@H](COP(=O)(O)O)C(=O)O; Thr(ol) = C[C@@H](O)[C@H](N)CO; X1 = O=C(COP(=O)(O)O)*
Key:
[1] = Normalized aggregation parameter (NAP) by UV-visible absorbance; assay type: physicochemical; details: single ligand shell
Procedure: UV-visible spectra were recorded at room temperature using a Molecular Probes (Oregon, USA) Spectramax 384-well spectrometer, using a 1 cm path length quartz cuvette, and a fixed slit width of 2 nrn. The spectrometer was calibrated daily using the machine's ‘Auto-Calibrate’ air calibration.
To allow the comparison of results from different ligand exchange experiments, the aggregation parameter (AP) was defined as follows: […]
A460 nm and A300 nm are absorbance values of solutions of nanoparticles at 460 nm and 300 nm, respectively. The empiric wavelength of 460 nm has been chosen to reflect the aggregated state of the nanoparticles. Aref460 nm and Aref300 nm are absorbance values of water at 460 nm and 300 nm. To allow comparison of results obtained with different ligand shells, this primary aggregation parameter was then normalized by dividing the aggregation parameter values of each experiment by the initial aggregation parameter value of the same experiment before the stability test. This provides a Normalized Aggregation Parameter (NAP). […] An increase of the NAP indicates the instability and eventually aggregation of the nanoparticles.

[2] = Electrolyte-induced aggregation stability test (NaCl, PBS) followed by UV-visible spectrometry; assay type: physicochemical; details: prepared in PBS and Tween 20, two days
Procedure: The stability of the nanoparticles was followed by UV-visible spectrometry. A decrease of absorbance indicates the aggregation of the nanoparticles. […] The four single peptide ligand shells were evaluated for their potential to stabilize the iron oxide nanoparticles against electrolyte-induced aggregation. The nanoparticles were mixing with a range of concentration of NaCl (0.1 mM to 1 M) at room temperature. The stability of the nanoparticles was followed by UV-visible spectrophotometry and the normalized aggregation parameters were determined. […] The aggregation of all nanoparticles were observed also in PBS buffer (with 100 mM NaCl) after few hours. […] This represents a promising result since the utilization of the peptide coated iron nanoparticles in vitro and in vivo are performed at 37° C. All the mixed peptide ligand shells providing sufficient yield of nanoparticles were evaluated for electrolyte-induced aggregation stability by mixing the nanoparticles with a range of concentration of NaCl (0.1 mM to 1 M) at room temperature. […] This represents again a promising results since the utilisation of the peptide coated iron nanoparticles in vitro and in vivo are performed at 37° C.

[3] = prepared using PBS and Tween 20

NAP (normalized aggregation parameter) ([1]; prepared using water only) | Compound | further results
(1.23 ± 0.13) | H-[pS]VVV[Thr(ol)] [Peptide S13] | NAP (normalized aggregation parameter) [1, 3]: 2.23 ± 0.34
(1 ± 0.02) | PO3H2-O-CH2-CO-Ser(PO3H2)-NH-PEG4-OH [Peptide S7] | NAP (normalized aggregation parameter) [1, 3]: 1.33 ± 0.08
– | CC(C)[C@H](NC(=O)[C@H](COP(=O)(O)O)NC(=O)COP(=O)(O)O)C(=O)N[C@H](C(=O)N[C@H](C(=O)N[C@H](CO)[C@@H](C)O)C(C)C)C(C)C [Peptide S14, PO3H2-O-CH2-CO-Ser(PO3H2)-Val-Val-Val-Thr-ol] (X1-[pS]VVV[Thr(ol)]) | Stability in PBS buffer at 37° C. ([2]; 37° C.): same high stability; Stability in 1 M NaCl ([2]; room temperature): high stability; Stability in PBS buffer at room temperature ([2]; room temperature): high stability
(1.31 ± 0.04) | O=P(O)(O)SCCCCCCCCCCCOCCOCCOCCOCCOCCOCCO [Ligand L2, (HO)2-PO-S-C11-EG6-OH] | –
(1.21 ± 0.21) | PO3H2-O-CH2-CO-Gly-NH-PEG4-OH [Peptide S5] | –
(1 ± 0.01) | PO3H2-O-CH2-CO-Ser(PO3H2)-NH-PEG4-ol [Peptide S8] | –

Compound | NAP (normalized aggregation parameter) ([1]; prepared using water only) | further results
O=P(O)(O)SCCCCCCCCCCCOCCOCCOCCO [Ligand L1, (HO)2-PO-S-C11-EG3-OH] | (1.25 ± 0.08) | –

From patent US20180289843A1, “COATING FOR METAL NANOPARTICLES” (AGENCY FOR SCIENCE, TECHNOLOGY AND RESEARCH, priority 2015, published 2018)
